We go through one compound from US20250144069A1, “BILOBALIDE DERIVATIVE COMPOUNDS FOR TREATING NEUROLOGICAL DISEASES AND CANCERS” (The Chinese University of Hong Kong, priority 2023, published 2025).

One data set deals with Jurkat cells. Description: Single-dose CCK-8 cell viability screening (suspension cells). In kind it is cell-based, human. The note with it: Homo sapiens, Jurkat, 48 h, Jurkat cells, 50 uM, CCK-8, read-out: % Viability (50 uM, 48 h) Jurkat.
The test system of data set [1] is HMC3 microglial cell line. Description: RSL3-induced ferroptosis model, cell viability (CCK-8). The class given is cell-based.
Data set [2] deals with HMC3 cells. As to the kind of experiment: Intracellular ROS level by CellROX (fluorescent imaging and flow cytometry). In kind it is cell-based. The note with it: HMC3, 50 nM RSL3 2 h, then 50 μM compound 3 h. As to the method: For flow cytometry, HMC3 cells (seeded 50,000 cells per well on 24-well plate one day prior to the experiment) were pretreated with 50 nM RSL3 for 2 h. […] After which medium was replaced with BODIPY™ 581/591C11 (10 μM, Invitrogen) or CellROX™ Green (5 μM, Invitrogen) for 30 min staining. Cells were then washed 3 times with PBS and collected. Fluorescence was measured by BD FACSympgony A5.2 SORP Flow Cell Analyzer (BD Biosciences).
For fluorescent imaging, 10,000 cells per well of HMC3 were laid on cover slip and incubated overnight. After the same compound treatment as described above in this section, cells were subsequently incubated with CellROX™ Green and Hoechst 34580 (MCE) for 30 min. After incubation, cells were washed 3 times gently with PBS. Cover slips were then attached to glass slides by Anti-Fade Fluorescence Mounting Medium (Abcam) and imaged via ECLIPSE Ti fluorescence microscope (Nikon). Fluorescent intensity was quantified using imageJ software.
To further evaluate the anti-ferroptotic properties of bilobalide analogues, we tested its effect on the total level of intracellular reactive oxygen species (ROS), we performed fluorescent staining on the HMC3 cell line using CellROX, which is a probe which can emit green fluorescence after reacting with ROS. […]

Data set [3] deals with HMC3 cells. In kind it is cell-based. The note with it: then 50 μM compound 22 h.
In data set [4] the test system is HMC3 cells. Description: Cytotoxicity, cell viability of HMC3 cells. In kind it is cell-based. The conditions noted are these: 24 h treatment. From the text:
Now referring to FIG. 11A, a chart showing the cell viability (%) of HMC3 cells treated with SXQ087-1, XBB-037 or bilobalide.

Data set [5] deals with HT22 mouse hippocampal cell line. As to the kind of experiment: RSL3-induced ferroptosis model, cell viability (CCK-8).
Method: In this example, the anti-ferroptotic properties of the BB analogues described in preceding examples were evaluated by a RSL3-induced ferroptosis model. […] To evaluate the anti-ferroptosis activity of BB analogues, we developed a phenotypic screening based on RSL3-induced ferroptosis model on HT22 mouse hippocampal cell line, HMC3 microglial cell line and BV-2 murine microglial cell line which were co-treated or pre-treated with RSL3 and BB analogues for 2-24 h, and the cell viability was subsequently measured.
HMC3 cell line was maintained in Minimum Essential Medium (MEM, Gibco) supplemented with 1× non-essential amino acid (Gibco), 1 mM sodium pyruvate (Gibco), 10% fetal bovine serum (FBS) (Gibco) and 1% penicillin/streptomycin (Gibco). BV-2 cell line was maintained in Roswell Park Memorial Institute (RPMI) 1640 medium (Gibco) supplemented with 10% FBS and 1% penicillin/streptomycin, and HT22 cell line was maintained in Dulbecco's Modified Eagle's Medium (DMEM) (Gibco) supplemented with 10% FBS and 1% penicillin/streptomycin. All cells were incubated at 37° C. in a humidified atmosphere under 5% CO2.
For phenotypic screening of bilobalide (BB) analogues, 5,000 cells per well (100 uL volume) of HT22, HMC3 or BV-2 cells were placed in 96-well plate and allowed to adhere for 22 h. After which, cells were pre-treated with 200 nM (on HT22, HMC3) or 500 nM (on BV-2) of RSL3 (Bidepharm) for 2 h respectively. Medium was then replaced by 50 μM BB analogues and followed by 22 h incubation subsequently. Cell viability was measured using cell counting kit-8 (CCK-8) (MCE). For dose-response of BB analogues, RSL3, HT22 and HMC3 cells (seeded on 96-well plates at 5,000 cells per well) were treated with multiple doses of RSL3 for 2 h. […] Cell viability was measured after 22 h treatment by CCK-8. […] Cell viability was measured by CCK-8 using CLARIOstar monochromator multimode plate reader under 450 nm wavelength.
In this example, the cells were pre-treated with RSL3 (200 nM for HT22 and HMC3, 500 nM for BV-2) for two hours, followed by bilobalide analogues treatment (50 PM) for 22 hours. Cell viability was measured using cell counting kit-8 (CCK-8); n=5 technical replicates. […] Such effect was further investigated by treating the cell lines with various doses of RSL3.
Data set [6] relates to BV-2 murine microglial cell line. The description is as above. The note with it: BV-2, RSL3 500 nM 2 h, then 50 μM compound 22 h.
Method: In this example, the anti-ferroptotic properties of the BB analogues described in preceding examples were evaluated by a RSL3-induced ferroptosis model. […] To evaluate the anti-ferroptosis activity of BB analogues, we developed a phenotypic screening based on RSL3-induced ferroptosis model on HT22 mouse hippocampal cell line, HMC3 microglial cell line and BV-2 murine microglial cell line which were co-treated or pre-treated with RSL3 and BB analogues for 2-24 h, and the cell viability was subsequently measured. […]
For phenotypic screening of bilobalide (BB) analogues, 5,000 cells per well (100 uL volume) of HT22, HMC3 or BV-2 cells were placed in 96-well plate and allowed to adhere for 22 h. […] Cell viability was measured using cell counting kit-8 (CCK-8) (MCE). […] Cell viability was measured after 22 h treatment by CCK-8. […] Cell viability was measured by CCK-8 using CLARIOstar monochromator multimode plate reader under 450 nm wavelength.
In this example, the cells were pre-treated with RSL3 (200 nM for HT22 and HMC3, 500 nM for BV-2) for two hours, followed by bilobalide analogues treatment (50 PM) for 22 hours. Cell viability was measured using cell counting kit-8 (CCK-8); n=5 technical replicates. […]

Molecules are shown by their SMILES.

By viability is commonly meant a read-out of living cells in per cent, often relative to untreated cells. For the compound `CC(C)(C)[C@]1(O)C[C@@H]2OC(=O)C[C@@]23C(=O)O[C@@H]2N(c4ccc(N)cc4)C(=O)[C@H](OC(=O)c4ccccc4)[C@]213` [XBB-037, 4-(3aS,5aS,8R,9R,10aS)-8-(benzoyloxy)-9-(tert-butyl)-9-hydroxy-2,4,7-trioxohexahydro-4H,9H-furo[3″,2″:2′,3′]cyclopenta[1′,2′:3,4]furo[2,3-b]pyrrol-6(5aH)-yl)benzenaminium chloride], in the data set on Jurkat cells, the viability at 50 µM was found to be 86%. The “inhibition of RSL3-induced ferroptosis (phenotypic screening, cell viability)” value is reported as “effectively inhibit ferroptosis” in data set [1] (HMC3, RSL3 200 nM 2 h, then 50 μM compound 22 h); “effectively inhibit ferroptosis” in data set [5] (HT22, RSL3 200 nM 2 h, then 50 μM compound 22 h); “effectively inhibit ferroptosis” in data set [6]. Also, the “shift of RSL3 dose-dependent viability curve” value in data set [1] (HMC3, multiple doses of RSL3, 50 μM compound) is “diminished RSL3 lethality”; in data set [5] (HT22, multiple doses of RSL3, 50 μM compound), “diminished RSL3 lethality”. The “intracellular ROS level (CellROX fluorescent staining)” value in the data set with HMC3 cells [2] is listed as “significantly reduced intracellular ROS level”. The “protection against FIN56-induced cell death (cell viability)” value with HMC3 cells [3] (HMC3, FIN56 2 h) was “effectively suppressed FIN56-induced cell death”. Moreover, in the data set on HMC3 cells [3] (HMC3, ML162 2 h), the “protection against ML162 lethality (cell viability)” value is recorded as “alleviated the lethality of ML162”. Besides, the “protection against ML210 lethality (cell viability)” value in the data set on HMC3 cells [3] (HMC3, ML210 2 h) is “alleviated the lethality of ML210”. Also, in the data set on HMC3 cells [3] (HMC3, erastin 2 h), the “protection against erastin-induced lethality (cell viability)” value is recorded as “suppressed erastin-induced lethality”. Also, in the data set with HMC3 cells [4], the “cytotoxicity (cell viability)” value is on record as “no significant cytotoxicity”.
